Source: US20260285831A1, “LACTAM DERIVATIVES FOR INHIBITING NLRP3 AND USES THEREOF” (Ventus Therapeutics U.S., Inc., priority 2023, published 2026)
Like-named read-outs stand apart in the source and are kept apart here.

Biological target: T1, human NLRP3 (Homo sapiens, UniProt Q96P20)
T1 construct: Human whole blood is drawn from healthy volunteers after obtaining written informed consent; from tissue; host or cells: human whole blood from healthy volunteers (heparin lithium tubes)
Assay: Human whole blood (hWB) NLRP3 assay (IL-1β release after LPS priming and ATP activation)
Assay type: cell-based
Details: for IC50: human whole blood; for hWB NLRP3 inhibitory activity compared to the (S)-isomer: isomer comparison, in words; for fold improvement in activity compared to Compound 3 (hWB IL-1β IC50): additional ring N atom versus Compound 3 with lactam ring N as sole N ring atom, Table E
Method: Human Whole Blood (hWB) NLRP3 Assay
Human whole blood is drawn from healthy volunteers after obtaining written informed consent. Heparin lithium coated tubes are used to collect blood from volunteers. Blood samples are distributed on 96 well plates using 90 μl per well.
Priming procedure: Priming is performed by adding 5 μl of LPS (026:B6; Sigma L-2654) at a final concentration of 1 μg/ml for 4.5 hours in a humidified incubator with 37° C., 5% CO2. Thirty minutes prior to NLRP3 activation, 5 μl of a 20× compound solution or vehicle (2% dimethylsulfoxide (DMSO)) is added to each well and plates were incubated on a shaker (450 rpm) in a humidified incubator with 37° C., 5% CO2.
Alternative priming procedure: Thirty minutes prior to LPS priming, 5 μl of a 20× compound solution or vehicle (2% dimethylsulfoxide (DMSO)) is added to each well and plates were incubated on a shaker (450 rpm) in a humidified incubator with 37° C., 5% CO2. Priming is performed by adding 5 μl of LPS (026:B6; Sigma L-2654) at a final concentration of 1 μg/ml for 5 hours in a humidified incubator with 37° C., 5% CO2.
Activation is then performed by adding 3.3 μl of a 31×ATP solution per well. At the end of the 30 minutes stimulation, the plates are centrifuged (800 g, 10 min, room temperature) and the plasma from each well is frozen at −80° C. […] levels in the supernatant were analyzed using a mesoscale discovery assay (MSD K151TUK) according to the manufacturers' instructions.
There is no detectable difference in assay IC50 results using the priming procedure versus the alternative priming procedure.
Data provided in Table C, below. hWB […] Assay: A represents an IC50 value <0.3 μM; B represents an IC50 value ≥0.3 μM and <0.5 μM; C represents an IC50 value ≥0.5 μM and <1.0 μM; D represents an IC50 value ≥1.0 μM and <10 μM; E represents an IC50 value ≥10 μM. Dashed (--) lines indicate no data available.

[1] = LPS 1 μg/ml priming, ATP activation, Table C, class symbols, read-out: hWB IL-1β IC50
[2] = numeric values of Tables D and E, read-out: hWB IL-1β IC50

T1 sequence (Q96P20 whole entry): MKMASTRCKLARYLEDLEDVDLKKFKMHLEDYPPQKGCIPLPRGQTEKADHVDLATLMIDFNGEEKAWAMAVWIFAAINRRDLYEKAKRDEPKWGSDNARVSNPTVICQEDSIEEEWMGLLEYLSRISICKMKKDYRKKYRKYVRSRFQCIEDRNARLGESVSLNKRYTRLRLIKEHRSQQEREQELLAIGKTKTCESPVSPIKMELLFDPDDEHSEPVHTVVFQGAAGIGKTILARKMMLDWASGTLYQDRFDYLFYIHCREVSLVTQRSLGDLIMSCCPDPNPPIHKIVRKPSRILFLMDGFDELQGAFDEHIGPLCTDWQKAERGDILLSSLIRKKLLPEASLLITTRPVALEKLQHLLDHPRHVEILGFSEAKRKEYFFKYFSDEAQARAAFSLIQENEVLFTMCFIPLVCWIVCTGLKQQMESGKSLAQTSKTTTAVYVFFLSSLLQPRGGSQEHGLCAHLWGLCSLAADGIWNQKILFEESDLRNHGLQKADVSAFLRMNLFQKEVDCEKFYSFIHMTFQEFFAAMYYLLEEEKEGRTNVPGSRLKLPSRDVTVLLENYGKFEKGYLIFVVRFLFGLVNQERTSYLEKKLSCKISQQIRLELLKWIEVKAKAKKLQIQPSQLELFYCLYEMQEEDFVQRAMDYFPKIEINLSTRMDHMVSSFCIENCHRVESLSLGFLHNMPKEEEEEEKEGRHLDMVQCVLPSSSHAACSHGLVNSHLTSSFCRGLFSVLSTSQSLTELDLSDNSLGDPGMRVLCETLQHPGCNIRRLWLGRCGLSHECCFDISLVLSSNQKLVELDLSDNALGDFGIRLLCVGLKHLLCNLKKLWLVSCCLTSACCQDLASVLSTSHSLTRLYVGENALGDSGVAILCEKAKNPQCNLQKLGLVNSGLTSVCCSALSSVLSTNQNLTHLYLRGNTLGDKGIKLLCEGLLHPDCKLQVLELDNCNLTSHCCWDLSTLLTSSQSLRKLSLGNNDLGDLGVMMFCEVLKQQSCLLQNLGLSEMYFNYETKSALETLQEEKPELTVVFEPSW

Cc1ccn(CCCC(=O)O)c(=O)c1N1C(=O)C(C)(C)c2c(F)c(C3CC3)cc(F)c21 (single isomer, unassigned) [Compound 4A*, (Sa)-4-(3-(5-cyclopropyl-4,7-difluoro-3,3-dimethyl-2-oxoindolin-1-yl)-4-methyl-2-oxopyridin-1(2H)-yl)butanoic acid]
IC50 [1]: ≥ 10000 nM

CC1(C)C(=O)N(c2nccn([C@H]3CCC[C@@H]3CC(=O)O)c2=O)c2c(F)cc(C3CC3)c(F)c21 (single isomer, unassigned) [Compound 20C*]
IC50 [1]: 500 to 1000 nM

CC1(C)C(=O)N(c2nccn([C@@H]3CCC[C@H]3CC(=O)O)c2=O)c2c(F)cc(C3CC3)c(F)c21 (single isomer, unassigned) [Compound 20D*]
IC50 [1]: 500 to 1000 nM

C[C@@H](CCC(=O)O)N1CC[C@@H](N2C(=O)C(C)(C)c3c(F)c(C4CC4)cc(F)c32)C1=O (single isomer, unassigned) [Compound 24A*]
IC50 [1]: 300 to 500 nM

C[C@@H](CCC(=O)O)N1CC[C@H](N2C(=O)C(C)(C)c3c(F)c(C4CC4)cc(F)c32)C1=O (single isomer, unassigned) [Compound 24C*]
IC50 [1]: ≥ 10000 nM

C[C@H](CCC(=O)O)N1CC[C@@H](N2C(=O)C(C)(C)c3c(F)c(C4CC4)cc(F)c32)C1=O (single isomer, unassigned) [Compound 24D*]
IC50 [1]: 1000 to 10000 nM

CC1(C)C(=O)N([C@@H]2CC(C)(C)N(CCCC(=O)O)C2=O)c2c(F)cc(C3CC3)c(F)c21 (single isomer, unassigned) [Compound 25A]
IC50 [1]: ≥ 10000 nM

CC1(C)C(=O)N([C@H]2CC(C)(C)N(CCCC(=O)O)C2=O)c2c(F)cc(C3CC3)c(F)c21 (single isomer, unassigned) [Compound 25B]
IC50 [1]: ≥ 10000 nM

C[C@@H](CC(=O)O)CN1CC[C@@H](N2C(=O)C(C)(C)c3c(F)c(C4CC4)cc(F)c32)C1=O (single isomer, unassigned) [Compound 26A*]
IC50 [1]: 300 to 500 nM

C[C@H](CC(=O)O)CN1CC[C@H](N2C(=O)C(C)(C)c3c(F)c(C4CC4)cc(F)c32)C1=O (single isomer, unassigned) [Compound 26D*]
IC50 [1]: ≥ 10000 nM

CC1(C)C(=O)N([C@@H]2CCN(CCCC(=O)O)C2=O)c2ccc(C3CC3)c(F)c21 (stereo in doubt) [Compound 18A*, (R)-4-(3-(5-cyclopropyl-4-fluoro-3,3-dimethyl-2-oxoindolin-1-yl)-2-oxopyrrolidin-1-yl)butanoic acid]
fold more active than 18B* (hWB IL-1β IC50) (R-isomer versus S-isomer 18B*, Table D): > 147 fold
IC50 [1]: 1000 to 10000 nM
IC50 [2]: 3400 nM

CC1(C)C(=O)N([C@H]2CCN(CCCC(=O)O)C2=O)c2ccc(C3CC3)c(F)c21 (stereo in doubt) [Compound 18B*, (S)-4-(3-(5-cyclopropyl-4-fluoro-3,3-dimethyl-2-oxoindolin-1-yl)-2-oxopyrrolidin-1-yl)butanoic acid]
IC50 [1]: ≥ 10000 nM
IC50 (class symbol printed beside the numeric value in Tables D and E, read-out: hWB IL-1β IC50 activity class): ≥ 10000 nM
IC50 [2]: > 500000 nM

CC1(C)C(=O)N([C@@H]2CCN(CCCC(=O)O)C2=O)c2c(F)cc(C(F)(F)F)c(F)c21 (stereo in doubt) [Compound 19A*, (R)-4-(3-(4,7-difluoro-3,3-dimethyl-2-oxo-5-(trifluoromethyl)indolin-1-yl)-2-oxopyrrolidin-1-yl)butanoic acid]
IC50 [1]: < 300 nM
hWB NLRP3 inhibitory activity compared to the (S)-isomer: more active isomer

CC1(C)C(=O)N([C@@H]2CCN(CCCC(=O)O)C2=O)c2c(F)cc(C3CC3)cc21 (stereo in doubt) [Compound 22A*, (R)-4-(3-(5-cyclopropyl-7-fluoro-3,3-dimethyl-2-oxoindolin-1-yl)-2-oxopyrrolidin-1-yl)butanoic acid]
IC50 [1]: < 300 nM
hWB NLRP3 inhibitory activity compared to the (S)-isomer: more active isomer

CC1(C)C(=O)N([C@@H]2CCN(CCCC(=O)O)C2=O)c2c(F)cc(Cl)c(F)c21 (stereo in doubt) [Compound 23A, (R)-4-(3-(5-chloro-4,7-difluoro-3,3-dimethyl-2-oxoindolin-1-yl)-2-oxopyrrolidin-1-yl)butanoic acid]
IC50 [1]: 1000 to 10000 nM

CC1(C)C(=O)N(c2cccn(CCCC(=O)O)c2=O)c2c(F)cc(Br)cc21 [Compound 1, 4-(3-(5-bromo-7-fluoro-3,3-dimethyl-2-oxoindolin-1-yl)-2-oxopyridin-1(2H)-yl)butanoic acid]
IC50 [1]: 1000 to 10000 nM

CC1(C)C(=O)N(c2cccn(CCCC(=O)O)c2=O)c2c(F)cc(C3CC3)cc21 [Compound 2, 4-(3-(5-cyclopropyl-7-fluoro-3,3-dimethyl-2-oxoindolin-1-yl)-2-oxopyridin-1(2H)-yl)butanoic acid]
IC50 [1]: 1000 to 10000 nM

CC1(C)C(=O)N(c2cccn(CCCC(=O)O)c2=O)c2c(F)cc(C3CC3)c(F)c21 [Compound 3, 4-(3-(5-cyclopropyl-4,7-difluoro-3,3-dimethyl-2-oxoindolin-1-yl)-2-oxopyridin-1(2H)-yl)butanoic acid]
IC50 [1]: 1000 to 10000 nM
IC50 [2]: 1900 nM

Cc1cc(N2C(=O)C(C)(C)c3c(F)c(C4CC4)cc(F)c32)c(=O)n(CCCC(=O)O)c1 [Compound 5, 4-(3-(5-cyclopropyl-4,7-difluoro-3,3-dimethyl-2-oxoindolin-1-yl)-5-methyl-2-oxopyridin-1(2H)-yl)butanoic acid]
IC50 [1]: 1000 to 10000 nM

Cc1ccc(N2C(=O)C(C)(C)c3c(F)c(C4CC4)cc(F)c32)c(=O)n1CCCC(=O)O [Compound 6, 4-(3-(5-cyclopropyl-4,7-difluoro-3,3-dimethyl-2-oxoindolin-1-yl)-6-methyl-2-oxopyridin-1(2H)-yl)butanoic acid]
IC50 [1]: 1000 to 10000 nM

CC1(C)C(=O)N(c2cccn(CCCC(=O)O)c2=O)c2c(O)cc(Cl)cc21 [Compound 7, 4-(3-(5-chloro-7-hydroxy-3,3-dimethyl-2-oxoindolin-1-yl)-2-oxopyridin-1(2H)-yl)butanoic acid]
IC50 [1]: 1000 to 10000 nM

CC1(C)C(=O)N(c2cncn(CCCC(=O)O)c2=O)c2c(F)cc(C3CC3)c(F)c21 [Compound 8, 4-(5-(5-cyclopropyl-4,7-difluoro-3,3-dimethyl-2-oxoindolin-1-yl)-6-oxopyrimidin-1(6H)-yl)butanoic acid]
fold improvement in activity compared to Compound 3 (hWB IL-1β IC50): 3-5 fold
IC50 [1]: 300 to 500 nM
IC50 [2]: 470 nM

CC1(C)C(=O)N(c2cc3ccccc3n(CCCC(=O)O)c2=O)c2c(F)cc(C3CC3)c(F)c21 [Compound 9, 4-(3-(5-cyclopropyl-4,7-difluoro-3,3-dimethyl-2-oxoindolin-1-yl)-2-oxoquinolin-1(2H)-yl)butanoic acid]
IC50 [1]: 1000 to 10000 nM

CC1(C)C(=O)N(c2nccn(CCCC(=O)O)c2=O)c2c(F)cc(C3CC3)c(F)c21 [Compound 10, 4-(3-(5-cyclopropyl-4,7-difluoro-3,3-dimethyl-2-oxoindolin-1-yl)-2-oxopyrazin-1(2H)-yl)butanoic acid]
fold improvement in activity compared to Compound 3 (hWB IL-1β IC50): 3-5 fold
IC50 [1]: 300 to 500 nM
IC50 [2]: 390 nM

CC1(C)C(=O)N(c2ccnn(CCCC(=O)O)c2=O)c2c(F)cc(C3CC3)c(F)c21 [Compound 11, 4-(5-(5-cyclopropyl-4,7-difluoro-3,3-dimethyl-2-oxoindolin-1-yl)-6-oxopyridazin-1(6H)-yl)butanoic acid]
fold improvement in activity compared to Compound 3 (hWB IL-1β IC50): 3-5 fold
IC50 [1]: 500 to 1000 nM
IC50 [2]: 610 nM

CC1(C)C(=O)N(c2cc(C(F)(F)F)cn(CCCC(=O)O)c2=O)c2c(F)cc(C3CC3)c(F)c21 [Compound 12, 4-(3-(5-cyclopropyl-4,7-difluoro-3,3-dimethyl-2-oxoindolin-1-yl)-2-oxo-5-(trifluoromethyl)pyridin-1(2H)-yl)butanoic acid]
IC50 [1]: 1000 to 10000 nM

CC1(C)C(=O)N(c2cc(-c3ccccc3)cn(CCCC(=O)O)c2=O)c2c(F)cc(C3CC3)c(F)c21 [Compound 13, 4-(3-(5-cyclopropyl-4,7-difluoro-3,3-dimethyl-2-oxoindolin-1-yl)-2-oxo-5-phenylpyridin-1(2H)-yl)butanoic acid]
IC50 [1]: ≥ 10000 nM

CC1(C)C(=O)N(c2cc(C3CC3)cn(CCCC(=O)O)c2=O)c2c(F)cc(C3CC3)c(F)c21 [Compound 14, 4-(5-cyclopropyl-3-(5-cyclopropyl-4,7-difluoro-3,3-dimethyl-2-oxoindolin-1-yl)-2-oxopyridin-1(2H)-yl)butanoic acid]
IC50 [1]: 1000 to 10000 nM

CC1(C)C(=O)N(c2c(=O)n(CCCC(=O)O)cc3ccccc23)c2c(F)cc(C3CC3)c(F)c21 [Compound 15, 4-(4-(5-cyclopropyl-4,7-difluoro-3,3-dimethyl-2-oxoindolin-1-yl)-3-oxoisoquinolin-2(3H)-yl)butanoic acid]
IC50 [1]: ≥ 10000 nM
